Source: the NIST ThermoML archive (doi:10.1021/acs.jced.6b00026)

Assay: xn = mol fraction of the nth substance listed
Settings: Fluid (supercritical or subcritical phases), Buoyancy - hydrostatic balance with magnetic suspension - one sinker

CCCCCCCCCCC [undecane] + O=C=O
Settings	mass density [kg/m3]
313.18 K, 8001 kPa, x2 = 0.6797	776.08
313.18 K, 13999 kPa, x2 = 0.2483	745.92
313.18 K, 16002 kPa, x2 = 0.6797	808.24
313.18 K, 18070 kPa, x2 = 0.8874	825.37
313.18 K, 18977 kPa, x2 = 0.2483	749.97
313.19 K, 16008 kPa, x2 = 0.2483	747.58
313.19 K, 19014 kPa, x2 = 0.6797	817.41
313.2 K, 10002 kPa, x2 = 0.6797	785.54
313.2 K, 12013 kPa, x2 = 0.2483	744.22
313.21 K, 8004 kPa, x2 = 0.2483	740.68
313.21 K, 10007 kPa, x2 = 0.2483	742.45
313.21 K, 12003 kPa, x2 = 0.6797	793.85
313.21 K, 13997 kPa, x2 = 0.6797	801.3
313.21 K, 18002 kPa, x2 = 0.2483	749.16
313.22 K, 19000 kPa, x2 = 0.4641	772.52
313.23 K, 16004 kPa, x2 = 0.4641	769.05
313.23 K, 17996 kPa, x2 = 0.4641	771.37
313.24 K, 10003 kPa, x2 = 0.4641	761.59
313.24 K, 12000 kPa, x2 = 0.4641	764.15
313.24 K, 18003 kPa, x2 = 0.6797	814.33
313.25 K, 7997 kPa, x2 = 0.4641	758.91
313.26 K, 10039 kPa, x2 = 0.8874	773.99
313.26 K, 11990 kPa, x2 = 0.8874	789.91
313.26 K, 14074 kPa, x2 = 0.8874	803.72
313.27 K, 16066 kPa, x2 = 0.8874	815
313.27 K, 19015 kPa, x2 = 0.8874	829.45
313.29 K, 14002 kPa, x2 = 0.4641	766.59
323.11 K, 18008 kPa, x2 = 0.6797	792.77
323.14 K, 11997 kPa, x2 = 0.2483	736.47
323.15 K, 16006 kPa, x2 = 0.4641	758.48
323.17 K, 7997 kPa, x2 = 0.4641	747.66
323.17 K, 14005 kPa, x2 = 0.4641	755.92
323.17 K, 19002 kPa, x2 = 0.6797	795.98
323.19 K, 9992 kPa, x2 = 0.6797	757.97
323.2 K, 9999 kPa, x2 = 0.2483	734.59
323.2 K, 11998 kPa, x2 = 0.6797	768.5
323.2 K, 16011 kPa, x2 = 0.2483	739.99
323.2 K, 18000 kPa, x2 = 0.2483	741.72
323.23 K, 14011 kPa, x2 = 0.2483	738.22
323.23 K, 19001 kPa, x2 = 0.2483	742.54
323.25 K, 16042 kPa, x2 = 0.6797	785.42
323.25 K, 19040 kPa, x2 = 0.8874	798.97
323.26 K, 10008 kPa, x2 = 0.4641	750.42
323.26 K, 12004 kPa, x2 = 0.4641	753.18
323.26 K, 19006 kPa, x2 = 0.4641	762.09
323.27 K, 8000 kPa, x2 = 0.2483	732.65
323.27 K, 18003 kPa, x2 = 0.4641	760.86
323.3 K, 14004 kPa, x2 = 0.6797	777.17
323.31 K, 13971 kPa, x2 = 0.8874	764.29
323.31 K, 18051 kPa, x2 = 0.8874	793.06
323.32 K, 11984 kPa, x2 = 0.8874	745.06
323.32 K, 16015 kPa, x2 = 0.8874	779.89
333.05 K, 15991 kPa, x2 = 0.2483	732.43
333.06 K, 8008 kPa, x2 = 0.2483	724.69
333.06 K, 18013 kPa, x2 = 0.2483	734.27
333.07 K, 18027 kPa, x2 = 0.6797	770.02
333.07 K, 19007 kPa, x2 = 0.2483	735.15
333.09 K, 18042 kPa, x2 = 0.8874	758.98
333.11 K, 12010 kPa, x2 = 0.8874	701.45
333.14 K, 10000 kPa, x2 = 0.2483	726.64
333.14 K, 11987 kPa, x2 = 0.6797	745.9
333.14 K, 18003 kPa, x2 = 0.4641	751.23
333.14 K, 19000 kPa, x2 = 0.6797	773.23
333.16 K, 10004 kPa, x2 = 0.4641	739.87
333.16 K, 11998 kPa, x2 = 0.4641	742.85
333.16 K, 12018 kPa, x2 = 0.2483	728.6
333.16 K, 16006 kPa, x2 = 0.4641	748.54
333.16 K, 19039 kPa, x2 = 0.8874	765.91
333.17 K, 8004 kPa, x2 = 0.4641	736.7
333.17 K, 13998 kPa, x2 = 0.6797	754.83
333.17 K, 14005 kPa, x2 = 0.8874	721.01
333.17 K, 14013 kPa, x2 = 0.2483	730.5
333.19 K, 13997 kPa, x2 = 0.4641	745.71
